The target in one experiment is Aurora kinase B (Homo sapiens, UniProt Q96GD4). In words: Inhibition of aurora B.
Experiment [1] addresses T1, 3-phosphoinositide-dependent protein kinase 1 (Homo sapiens, UniProt O15530).
T1 sequence (O15530 whole entry): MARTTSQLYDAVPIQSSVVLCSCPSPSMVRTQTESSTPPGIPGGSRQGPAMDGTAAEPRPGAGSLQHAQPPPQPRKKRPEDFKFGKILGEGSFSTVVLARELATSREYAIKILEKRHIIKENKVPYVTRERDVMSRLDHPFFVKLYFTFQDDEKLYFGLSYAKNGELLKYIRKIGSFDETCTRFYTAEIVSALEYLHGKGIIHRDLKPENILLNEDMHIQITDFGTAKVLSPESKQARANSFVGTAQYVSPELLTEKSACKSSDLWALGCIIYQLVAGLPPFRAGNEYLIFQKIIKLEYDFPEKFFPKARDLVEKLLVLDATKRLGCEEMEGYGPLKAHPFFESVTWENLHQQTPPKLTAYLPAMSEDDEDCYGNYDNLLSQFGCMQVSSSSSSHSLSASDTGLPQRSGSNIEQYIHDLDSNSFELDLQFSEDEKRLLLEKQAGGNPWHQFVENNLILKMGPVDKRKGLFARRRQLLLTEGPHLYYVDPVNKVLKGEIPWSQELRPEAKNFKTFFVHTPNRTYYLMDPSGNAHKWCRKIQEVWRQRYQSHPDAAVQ
The experiment in a line: Inhibition of PDK1-mediated AKT phosphorylation at Thr308 residue in human PC3 cells by ELISA. Type of experiment: cell-based, PC-3. In general terms: ELISA stands for enzyme-linked immunosorbent assay.

A further experiment has as its target T2, TGF-beta receptor type-1 (Homo sapiens, UniProt P36897).
T2 sequence (P36897 whole entry): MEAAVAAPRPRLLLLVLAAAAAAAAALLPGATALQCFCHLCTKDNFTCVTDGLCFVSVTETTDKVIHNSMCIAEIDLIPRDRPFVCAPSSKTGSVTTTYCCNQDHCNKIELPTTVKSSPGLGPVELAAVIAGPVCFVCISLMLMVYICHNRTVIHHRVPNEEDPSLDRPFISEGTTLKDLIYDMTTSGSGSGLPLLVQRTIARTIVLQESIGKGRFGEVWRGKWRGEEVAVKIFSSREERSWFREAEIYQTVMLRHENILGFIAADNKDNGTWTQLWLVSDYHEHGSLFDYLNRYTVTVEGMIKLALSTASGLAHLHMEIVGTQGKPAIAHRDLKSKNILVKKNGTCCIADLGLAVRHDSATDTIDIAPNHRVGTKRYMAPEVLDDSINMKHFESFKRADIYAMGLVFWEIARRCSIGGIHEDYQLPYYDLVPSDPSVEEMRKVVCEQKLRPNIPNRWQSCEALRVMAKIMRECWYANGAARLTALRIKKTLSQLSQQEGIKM
The experiment in a line: Inhibition of ALK5. Conditions: read-out: pIC50 (converted).

The next experiment deals with HEL. In words: Antiproliferative activity against human HEL 92.1.7 cells. Type of experiment: functional, cell-based.
The target of another experiment is T3, Aurora kinase A (Homo sapiens, UniProt O14965).
T3 sequence (O14965 whole entry): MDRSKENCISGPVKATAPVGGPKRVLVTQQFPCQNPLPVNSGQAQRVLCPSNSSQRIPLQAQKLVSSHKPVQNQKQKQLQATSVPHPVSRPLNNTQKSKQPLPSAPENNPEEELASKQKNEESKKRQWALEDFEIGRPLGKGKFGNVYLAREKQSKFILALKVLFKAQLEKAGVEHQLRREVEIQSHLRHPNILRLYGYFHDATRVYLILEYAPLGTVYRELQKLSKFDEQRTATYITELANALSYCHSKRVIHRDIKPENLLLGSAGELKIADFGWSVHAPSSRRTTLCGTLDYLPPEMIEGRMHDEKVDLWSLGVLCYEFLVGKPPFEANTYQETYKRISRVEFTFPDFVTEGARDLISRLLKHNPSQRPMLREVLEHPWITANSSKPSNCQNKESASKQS
In words: Inhibition of aurora A.

Experiment [2] addresses Rho-associated protein kinase 1 (Homo sapiens, UniProt Q13464). The experiment in a line: Inhibition of ROCK1.
The nature of experiment [3]: Antiproliferative activity against human OCI-AML3 cells. Type of experiment: functional, cell-based. Conditions: OCI-AML-3.
For another experiment, the system named is K562. In words: Antiproliferative activity against human K562 cells. Type of experiment: functional, cell-based.
Experiment [4] is described as follows: Antiproliferative activity against human F-36P cells. Type of experiment: functional, cell-based.
A further experiment has as its system OCI-AML2. The experiment in a line: Antiproliferative activity against human OCI-AML2 cells. The experiment is classed as functional, cell-based.
Experiment [5] has as its target T1, 3-phosphoinositide-dependent protein kinase 1. In words: Inhibition of PDK1-mediated RSK phosphorylation at Ser221 residue in human PC3 cells by ELISA. Type of experiment: cell-based, PC-3.
Experiment [6] has the same target. In words: Inhibition of PDK1.

Sequence of Aurora kinase B (Q96GD4 whole entry): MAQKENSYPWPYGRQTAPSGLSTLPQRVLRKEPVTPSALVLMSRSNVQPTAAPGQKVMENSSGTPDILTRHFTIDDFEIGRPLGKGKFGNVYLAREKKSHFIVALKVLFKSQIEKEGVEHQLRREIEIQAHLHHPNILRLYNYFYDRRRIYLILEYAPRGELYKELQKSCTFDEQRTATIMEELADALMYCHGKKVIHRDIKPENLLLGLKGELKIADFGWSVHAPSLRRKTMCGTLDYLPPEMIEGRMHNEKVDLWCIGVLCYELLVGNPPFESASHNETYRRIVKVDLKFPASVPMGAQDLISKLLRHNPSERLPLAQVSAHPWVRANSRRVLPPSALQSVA
Sequence of Rho-associated protein kinase 1 (Q13464 whole entry): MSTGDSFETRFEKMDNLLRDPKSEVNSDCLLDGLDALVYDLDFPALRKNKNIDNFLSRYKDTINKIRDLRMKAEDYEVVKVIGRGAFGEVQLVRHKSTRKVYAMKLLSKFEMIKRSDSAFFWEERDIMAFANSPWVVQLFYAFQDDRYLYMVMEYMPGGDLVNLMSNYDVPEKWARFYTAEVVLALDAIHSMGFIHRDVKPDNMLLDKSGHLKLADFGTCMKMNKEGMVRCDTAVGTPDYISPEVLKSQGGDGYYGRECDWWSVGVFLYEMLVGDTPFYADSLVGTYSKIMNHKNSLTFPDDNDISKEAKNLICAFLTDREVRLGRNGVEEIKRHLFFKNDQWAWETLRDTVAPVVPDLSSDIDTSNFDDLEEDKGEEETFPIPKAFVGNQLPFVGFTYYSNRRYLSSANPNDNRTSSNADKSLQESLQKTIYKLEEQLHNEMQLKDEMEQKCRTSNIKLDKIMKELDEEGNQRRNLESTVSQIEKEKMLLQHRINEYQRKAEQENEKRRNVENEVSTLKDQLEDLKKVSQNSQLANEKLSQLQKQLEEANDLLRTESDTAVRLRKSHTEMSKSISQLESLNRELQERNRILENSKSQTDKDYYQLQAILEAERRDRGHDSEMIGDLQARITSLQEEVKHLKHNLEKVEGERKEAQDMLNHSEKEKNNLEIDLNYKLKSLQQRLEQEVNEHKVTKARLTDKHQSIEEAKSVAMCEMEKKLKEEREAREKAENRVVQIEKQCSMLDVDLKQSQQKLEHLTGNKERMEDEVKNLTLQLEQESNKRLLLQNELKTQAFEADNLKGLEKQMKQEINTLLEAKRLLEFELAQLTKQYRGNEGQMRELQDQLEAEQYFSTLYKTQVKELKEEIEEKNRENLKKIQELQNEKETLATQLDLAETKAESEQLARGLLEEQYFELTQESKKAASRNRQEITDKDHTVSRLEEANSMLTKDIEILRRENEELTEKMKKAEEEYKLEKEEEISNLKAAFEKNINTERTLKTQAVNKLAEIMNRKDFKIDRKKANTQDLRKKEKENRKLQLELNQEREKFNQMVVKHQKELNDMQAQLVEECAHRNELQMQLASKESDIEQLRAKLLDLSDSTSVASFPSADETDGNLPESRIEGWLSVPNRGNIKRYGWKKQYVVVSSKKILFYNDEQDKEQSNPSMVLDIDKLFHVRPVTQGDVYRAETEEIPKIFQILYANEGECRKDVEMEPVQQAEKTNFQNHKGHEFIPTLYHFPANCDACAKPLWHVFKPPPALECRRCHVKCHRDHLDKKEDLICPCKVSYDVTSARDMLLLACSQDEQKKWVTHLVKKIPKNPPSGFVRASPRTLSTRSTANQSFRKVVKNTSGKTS

As to `CNc1nc(-c2ccc3c(N)n[nH]c3c2)cc(N2C[C@@H](C(=O)Nc3ccccc3)CC[C@H]2C)n1`, the IC50 was 2000 nM against Aurora kinase B; 165 nM in experiment [1]; greater than 10000 nM at TGF-beta receptor type-1; 12000 nM in the experiment with HEL; greater than 10000 nM on Aurora kinase A; 3160 nM in [2]. Moreover, the IC50 in experiment [3] was 650 nM; in the experiment on K562, 8000 nM; in [4] it was 460 nM; in the experiment with OCI-AML2, 580 nM; in [5] it was 655 nM; in [6], 1.58 nM.

As for `CC[C@@H]1CO[C@H](C(=O)NC2CCCCC2)CN1c1cc(-c2ccc3c(N)n[nH]c3c2)nc(NC)n1`, the IC50 is 1580 nM against Aurora kinase B; 85 nM in experiment [1]; greater than 10000 nM at TGF-beta receptor type-1; 16000 nM in the experiment on HEL; greater than 10000 nM against Aurora kinase A; greater than 10000 nM in [2]. Besides, the IC50 in [3] was 760 nM; with K562, greater than 30000 nM; in [4], 460 nM; in the experiment on OCI-AML2, 890 nM; in experiment [5] it was 102 nM; in experiment [6] it was 6.31 nM.

With `C[C@@H]1C[C@@H](NC(=O)OC(C)(C)C)CN(c2cc(-c3ccc4c(N)[nH]nc4c3)nc(N)n2)C1`, the IC50 against Aurora kinase B is 1580 nM; on TGF-beta receptor type-1 it was greater than 10000 nM; with HEL it was 18000 nM; against Aurora kinase A, 398 nM; in experiment [2], greater than 10000 nM; in experiment [3], 400 nM. Further, the IC50 with K562 was found to be 24000 nM; in experiment [4], 820 nM; with OCI-AML2 it was 690 nM.

Take `CNc1nc(-c2ccc3c(N)n[nH]c3c2)cc(N2C[C@@H](C(=O)NC3CCCCC3)OC[C@H]2C)n1`: the IC50 on Aurora kinase B is 5010 nM; in experiment [1], 24 nM; at TGF-beta receptor type-1, greater than 10000 nM; in the experiment on HEL, 19000 nM; against Aurora kinase A, greater than 10000 nM; in experiment [2], greater than 10000 nM. For the same compound, the IC50 in experiment [3] is 690 nM; with K562, greater than 30000 nM; in experiment [4] it was 390 nM; with OCI-AML2, 460 nM; in experiment [5], 30 nM; in experiment [6], 3.16 nM.

`C[C@@H]1C[C@@H](N(C)C(=O)CC(C)(C)C)CN(c2cc(-c3ccc4c(N)n[nH]c4c3)nc(N)n2)C1`: the IC50 was 200 nM against Aurora kinase B; 22 nM in experiment [1]; greater than 10000 nM on TGF-beta receptor type-1; 63.1 nM against Aurora kinase A; greater than 10000 nM in experiment [2]; 116 nM in experiment [5]. The IC50 in [6] was 0.631 nM.

Regarding `C[C@@H]1CC[C@H](C(=O)NC2CCCCC2)CN1c1cc(-c2ccc3c(N)n[nH]c3c2)nc(N)n1`, the IC50 against Aurora kinase B is 1000 nM; in experiment [1], 472 nM; at TGF-beta receptor type-1, greater than 10000 nM; against Aurora kinase A it was 5010 nM; in experiment [2] it was 631 nM; in experiment [5], 316 nM. The compound also showed an IC50 in [6] of 7.94 nM.

Take `CC[C@@H]1CO[C@H](C(=O)Nc2ccccc2)CN1c1cc(-c2ccc3c(N)n[nH]c3c2)nc(NC)n1`: the IC50 against Aurora kinase B was 1580 nM; in [1] it was 57 nM; at TGF-beta receptor type-1 it was greater than 10000 nM; against Aurora kinase A, 7940 nM; in experiment [2], 3160 nM; in experiment [5], 88 nM. For the same compound, the IC50 in experiment [6] was 3.16 nM.

On to `C[C@@H]1C[C@@H](N(C)C(=O)OC(C)(C)C)CN(c2cc(-c3ccc4c(N)n[nH]c4c3)nc(N)n2)C1`, for which the IC50 is 251 nM at Aurora kinase B; 9 nM in experiment [1]; greater than 10000 nM on TGF-beta receptor type-1; 18000 nM in the experiment with HEL; 126 nM on Aurora kinase A; greater than 10000 nM in experiment [2]. For the same compound, the IC50 in experiment [3] was 240 nM; with K562, 17000 nM; in experiment [4], 190 nM; with OCI-AML2, 380 nM; in experiment [5] it was 19 nM; in experiment [6], 0.794 nM.

Consider `Nc1nc(-c2ccc3c(N)n[nH]c3c2)cc(N2CCC[C@H](C(=O)Nc3ccccc3)C2)n1`, for which the IC50 was 1260 nM at Aurora kinase B; greater than 10000 nM on TGF-beta receptor type-1; 7940 nM at Aurora kinase A; 2000 nM in experiment [2]; 31.6 nM in experiment [6].

As for `COc1cc(-c2ccc3c(N)n[nH]c3c2)nc(N)n1`, the IC50 against Aurora kinase B is 7940 nM; on TGF-beta receptor type-1 it was 3160 nM; on Aurora kinase A, 6310 nM; in experiment [2], 5010 nM; in [6], 251 nM.

In the case of `Nc1nc(-c2ccc3c(N)n[nH]c3c2)cc(N2CCC[C@@H](C(=O)Nc3ccccc3)C2)n1`, the IC50 against Aurora kinase B was 1580 nM; at TGF-beta receptor type-1 it was greater than 10000 nM; on Aurora kinase A it was 7940 nM; in [2], 3160 nM; in experiment [6], 126 nM.

Turning to `CC(C)c1cc(-c2ccc3c(N)n[nH]c3c2)nc(N)n1`, the IC50 is 7940 nM at Aurora kinase B; 2000 nM at TGF-beta receptor type-1; 3160 nM against Aurora kinase A; greater than 10000 nM in [2]; 251 nM in experiment [6].

Consider `CC(C)(C)OC(=O)N[C@@H]1CCCN(c2cc(-c3ccc4c(N)n[nH]c4c3)nc(N)n2)C1`, for which the IC50 on Aurora kinase B is 5010 nM; on TGF-beta receptor type-1, greater than 10000 nM; against Aurora kinase A it was 1580 nM; in [2], greater than 10000 nM; in experiment [6], 25.1 nM.

The values are drawn from ChEMBL document CHEMBL1765070, “Structure-based design of potent and selective 3-phosphoinositide-dependent kinase-1 (PDK1) inhibitors” (J Med Chem, 2011).
